Source: US9758527B2, “Cyclohexene derivative, preparation method therefor, and pharmaceutical composition for preventing or treating metabolic diseases, containing same as active ingredient” (HYUNDAI PHARM CO., LTD., priority 2014, dated 2017)
Like-named read-outs stand apart in the source and are kept apart here.

Molecular target: T1, G protein-coupled receptor 119 (GPR-119) (Mesocricetus auratus, UniProt A0A1U8CD06)
T1 construct: hamster-derived β-cells containing G protein-coupled receptor 119 (GPR-119), HIT-T15 cells; host or cells: HIT-T15 (hamster pancreatic β-cells)
T1 sequence (A0A1U8CD06 1-334): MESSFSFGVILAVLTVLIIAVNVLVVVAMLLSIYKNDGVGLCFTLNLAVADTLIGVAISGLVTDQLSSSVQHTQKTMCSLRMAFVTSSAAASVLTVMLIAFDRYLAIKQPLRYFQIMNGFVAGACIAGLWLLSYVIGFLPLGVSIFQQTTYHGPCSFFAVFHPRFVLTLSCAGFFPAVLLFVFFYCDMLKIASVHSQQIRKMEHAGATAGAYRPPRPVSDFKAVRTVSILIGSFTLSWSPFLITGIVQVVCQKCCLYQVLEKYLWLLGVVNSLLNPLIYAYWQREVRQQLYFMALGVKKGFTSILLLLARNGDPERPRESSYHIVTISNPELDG
Test: Evaluation of cAMP activity in HIT-T15 cells (HTRF cAMP dynamic kit)
Type: cell-based, hamster
Conditions: cAMP activation
Experimental: To check whether the cyclohexene derivatives according to the present invention activate cyclic adenosine monophosphate (cAMP), experiments were carried out, as follows.
The HIT-T15 cells were plated on a 96-well plate at 60,000 cells per well. On the next day of plating, the cells were treated with a varying concentration of each of the example compounds according to the present invention, and incubated at 37° C. for an hour. In this case, each of the treated compounds was used at six concentrations, ranging from […], to treat the cells.
The cyclic adenosine monophosphate (cAMP) activity was measured according to the manufacturer's instruction using a cAMP dynamic kit commercially available from Cis Bio Inc. (Bedford, Mass.). The cells were lysed, and a level of cAMP was determined by a competitive immunoassay using D2-labeled cAMP and a cryptate-labeled anti-cAMP antibody. Fluorescence was read in Flex Station (Molecular Devices). […] Unlabeled cAMP in the cell lysate competed with the D2-labeled cAMP against the cryptate-labeled antibody. Since a decrease in the measured intensity of the FRET signals represents a level of cAMP in the cells, the cAMP activities of the compounds are calculated as a change in FRET signals by adjusting an amount of dimethyl sulfoxide (DMSO).

[1] = 1 h at 37° C., six concentrations, read-out: EC50

| SMILES | EC50 [1] | EC50 (read-out: EC50 value) |
| --- | --- | --- |
| CC(C)(C)OC(=O)N1CCC(COc2ccc(C3=CCC(C(=O)N4CC[C@H](O)C4)CC3)cn2)CC1 (stereo partly drawn) [Example 42, tert-butyl 4-((5-(4-((S)-3-hydroxypyrrolidine-1-carbonyl)cyclohex-1-enyl)pyridin-2-yloxy)methyl)piperidine-1-carboxylate] | 82 nM | – |
| CC(C)(C)OC(=O)N1CCC(COc2ccc(C3=CCC(C(=O)N4CC[C@@H](O)C4)CC3)cn2)CC1 (stereo partly drawn) [Example 43, tert-butyl 4-((5-(4-((R)-3-hydroxypyrrolidine-1-carbonyl)cyclohex-1-enyl)pyridin-2-yloxy)methyl)piperidine-1-carboxylate] | 85 nM | – |
| CC(C)(C)OC(=O)N1CCC(COc2ccc(C3=CCC(C(=O)N4CC[C@H](O)C4)CC3)cc2F)CC1 (stereo partly drawn) [Example 44, tert-butyl 4-((2-fluoro-4-(4-((S)-3-hydroxypyrrolidine-1-carbonyl)cyclohex-1-enyl)phenoxy)methyl)piperidine-1-carboxylate] | 13 nM | ≤ 50 nM |
| CC(C)(C)OC(=O)N1CCC(COc2ccc(C3=CCC(C(=O)N4CC[C@@H](O)C4)CC3)cc2F)CC1 (stereo partly drawn) [Example 45, tert-butyl 4-((2-fluoro-4-(4-((R)-3-hydroxypyrrolidine-1-carbonyl)cyclohex-1-enyl)phenoxy)methyl)piperidine-1-carboxylate] | 25 nM | ≤ 50 nM |
| CC(C)c1noc(N2CCC(COc3ccc(C4=CCC(C(=O)NC(CO)CO)CC4)nc3)CC2)n1 (centres unmarked) [Example 46, N-(1,3-dihydroxypropan-2-yl)-4-(5-((1-(3-isopropyl-1,2,4-oxadiazol-5-yl)piperidin-4-yl)methoxy)pyridin-2-yl)cyclohex-3-enecarboxamide] | 500 nM | – |
| CC(C)c1noc(N2CCC(COc3ccc(C4=CCC(C(=O)NCC(C)(C)CO)CC4)nc3)CC2)n1 (centres unmarked) [Example 47, N-(3-hydroxy-2,2-dimethylpropyl)-4-(5-((1-(3-isopropyl-1,2,4-oxadiazol-5-yl)piperidin-4-yl)methoxy)pyridin-2-yl)cyclohex-3-enecarboxamide] | 150 nM | – |
| CCc1cnc(N2CCC(COc3ccc(C4=CCC(C(=O)NCC(F)F)CC4)cc3)CC2)nc1 (centres unmarked) [Example 50, N-(2,2-difluoroethyl)-4-(4-((1-(5-ethylpyrimidin-2-yl)piperidin-4-yl)methoxy)phenyl)cyclohex-3-enecarboxamide] | 95 nM | – |
| CCc1cnc(N2CCC(COc3ccc(C4=CCC(C(=O)N5CCN(CC)CC5)CC4)cc3)CC2)nc1 (centres unmarked) [Example 55, (4-ethylpiperazin-1-yl)(4-(4-((1-(5-ethylpyrimidin-2-yl)piperidin-4-yl)methoxy)phenyl)cyclohex-3-enyl)methanone] | 100 nM | – |
| CC(C)(C)OC(=O)N1CCC(COc2ccc(C3=CCC(C(=O)N4CC[C@H](F)C4)CC3)cc2F)CC1 (stereo partly drawn) [Example 57, tert-butyl 4-((2-fluoro-4-(4-((S)-3-fluoropyrrolidine-1-carbonyl)cyclohex-1-enyl)phenoxy)methyl)piperidine-1-carboxylate] | 8 nM | ≤ 50 nM |
| CC(C)(C)OC(=O)N1CCC(COc2ccc(C3=CCC(C(=O)N4CC[C@@H](F)C4)CC3)cc2F)CC1 (stereo partly drawn) [Example 58, tert-butyl 4-((2-fluoro-4-(4-((R)-3-fluoropyrrolidine-1-carbonyl)cyclohex-1-enyl)phenoxy)methyl)piperidine-1-carboxylate] | – | ≤ 50 nM |
| C[C@@H](CO)NC(=O)C1CC=C(c2ccc(OCC3CCN(C(=O)OC(C)(C)C)CC3)c(F)c2)CC1 (stereo partly drawn) [Example 59, tert-butyl 4-((2-fluoro-4-(4-((S)-1-hydroxypropan-2-ylcarbamoyl)cyclohex-1-enyl)phenoxy)methyl)piperidine-1-carboxylate] | 78 nM | – |
| C[C@H](CO)NC(=O)C1CC=C(c2ccc(OCC3CCN(C(=O)OC(C)(C)C)CC3)c(F)c2)CC1 (stereo partly drawn) [Example 60, tert-butyl 4-((2-fluoro-4-(4-((R)-1-hydroxypropan-2-ylcarbamoyl)cyclohex-1-enyl)phenoxy)methyl)piperidine-1-carboxylate] | 40 nM | ≤ 50 nM |
| C[C@H](O)CNC(=O)C1CC=C(c2ccc(OCC3CCN(C(=O)OC(C)(C)C)CC3)c(F)c2)CC1 (stereo partly drawn) [Example 61, tert-butyl 4-((2-fluoro-4-(4-((S)-2-hydroxypropylcarbamoyl)cyclohex-1-enyl)phenoxy)methyl)piperidine-1-carboxylate] | 45 nM | ≤ 50 nM |
| C[C@@H](O)CNC(=O)C1CC=C(c2ccc(OCC3CCN(C(=O)OC(C)(C)C)CC3)c(F)c2)CC1 (stereo partly drawn) [Example 62, tert-butyl 4-((2-fluoro-4-(4-((R)-2-hydroxypropylcarbamoyl)cyclohex-1-enyl)phenoxy)methyl)piperidine-1-carboxylate] | 70 nM | – |
| CC(C)(C)OC(=O)N1CCC(COc2ccc(C3=CCC(C(=O)NC[C@H](O)CO)CC3)cc2F)CC1 (stereo partly drawn) [Example 63, tert-butyl 4-((4-(4-((S)-2,3-dihydroxypropylcarbamoyl)cyclohex-1-enyl)-2-fluorophenoxy)methyl)piperidine-1-carboxylate] | 110 nM | – |
| CC(C)(C)OC(=O)N1CCC(COc2ccc(C3=CCC(C(=O)NC[C@@H](O)CO)CC3)cc2F)CC1 (stereo partly drawn) [Example 64, tert-butyl 4-((4-(4-((R)-2,3-dihydroxypropylcarbamoyl)cyclohex-1-enyl)-2-fluorophenoxy)methyl)piperidine-1-carboxylate] | 50 nM | ≤ 50 nM |
| CC(C)(C)OC(=O)N1CCC(COc2ccc(C3=CCC(C(=O)NC(CO)CO)CC3)cc2F)CC1 (centres unmarked) [Example 67, tert-butyl 4-((4-(4-(1,3-dihydroxypropan-2-ylcarbamoyl)cyclohex-1-enyl)-2-fluorophenoxy)methyl)piperidine-1-carboxylate] | 60 nM | – |
| CC(C)(C)OC(=O)N1CCC(COc2ccc(C3=CCC(C(=O)NC(CO)CO)CC3)cn2)CC1 (centres unmarked) [Example 68, tert-butyl 4-((5-(4-(1,3-dihydroxypropan-2-ylcarbamoyl)cyclohex-1-enyl)pyridin-2-yloxy)methyl)piperidine-1-carboxylate] | 300 nM | – |

The remaining lines, values ahead:

| EC50 [1] | EC50 (read-out: EC50 value) | SMILES |
| --- | --- | --- |
| 26 nM | ≤ 50 nM | CC(C)c1noc(N2CCC(COc3ccc(C4=CCC(C(=O)N5CC[C@H](O)C5)CC4)cc3)CC2)n1 (stereo partly drawn) [Example 49, ((S)-3-hydroxypyrrolidin-1-yl)(4-(4-((1-(3-isopropyl-1,2,4-oxadiazol-5-yl)piperidin-4-yl)methoxy)phenyl)cyclohex-3-enyl)methanone] |
| 66 nM | – | CC(C)c1noc(N2CCC(COc3ccc(C4=CCC(C(=O)NCC(F)F)CC4)cc3)CC2)n1 (centres unmarked) [Example 51, N-(2,2-difluoroethyl)-4-(4-((1-(3-isopropyl-1,2,4-oxadiazol-5-yl)piperidin-4-yl)methoxy)phenyl)cyclohex-3-enecarboxamide] |
| 55 nM | – | CC(C)c1noc(N2CCC(COc3ccc(C4=CCC(C(=O)N5CCCC5)CC4)cc3)CC2)n1 (centres unmarked) [Example 52, (4-(4-((1-(3-isopropyl-1,2,4-oxadiazol-5-yl)piperidin-4-yl)methoxy)phenyl)cyclohex-3-enyl)(pyrrolidin-1-yl)methanone] |
| 21 nM | ≤ 50 nM | CC(C)c1noc(N2CCC(COc3ccc(C4=CCC(C(=O)N5CC[C@H](F)C5)CC4)cc3)CC2)n1 (stereo partly drawn) [Example 53, ((S)-3-fluoropyrrolidin-1-yl)(4-(4-((1-(3-isopropyl-1,2,4-oxadiazol-5-yl)piperidin-4-yl)methoxy)phenyl)cyclohex-3-enyl)methanone] |
| 42 nM | ≤ 50 nM | CC(C)c1noc(N2CCC(COc3ccc(C4=CCC(C(=O)N5CC[C@@H](F)C5)CC4)cc3)CC2)n1 (stereo partly drawn) [Example 54, ((R)-3-fluoropyrrolidin-1-yl)(4-(4-((1-(3-isopropyl-1,2,4-oxadiazol-5-yl)piperidin-4-yl)methoxy)phenyl)cyclohex-3-enyl)methanone] |
| 30 nM | ≤ 50 nM | CC(C)c1noc(N2CCC(COc3ccc(C4=CCC(C(=O)N5CCCCC5)CC4)cc3)CC2)n1 (centres unmarked) [Example 56, (4-(4-((1-(3-isopropyl-1,2,4-oxadiazol-5-yl)piperidin-4-yl)methoxy)phenyl)cyclohex-3-enyl)(piperidin-1-yl)methanone] |
| 41 nM | ≤ 50 nM | CC(C)c1noc(N2CCC(COc3ccc(C4=CCC(C(=O)N5CCC5)CC4)cc3)CC2)n1 (centres unmarked) [Example 65, azetidin-1-yl(4-(4-((1-(3-isopropyl-1,2,4-oxadiazol-5-yl)piperidin-4-yl)methoxy)phenyl)cyclohex-3-enyl)methanone] |
| 18 nM | ≤ 50 nM | CC(C)c1noc(N2CCC(COc3ccc(C4=CCC(C(=O)N5CCOCC5)CC4)cc3)CC2)n1 (centres unmarked) [Example 66, (4-(4-((1-(3-isopropyl-1,2,4-oxadiazol-5-yl)piperidin-4-yl)methoxy)phenyl)cyclohex-3-enyl)(morpholino)methanone] |
